Measured values from ChEMBL document CHEMBL1629541, “Synthesis and structure-activity relationships of aza- and diazabiphenyl analogues of the antitubercular drug (6S)-2-nitro-6-{[4-(trifluoromethoxy)benzyl]oxy}-6,7-dihydro-5H-imidazo[2,1-b][1,3]oxazine (PA-824)” (J Med Chem, 2010).
Converted amounts (≈) assume the structure as drawn.

Key:
[1] = Cmax in CD1 mouse lung at 40 mg/kg, po administered as single dose; type: ADME, organism-based; set-up: dose 40 mg/kg, route oral
[2] = Thermodynamic solubility in aqueous buffer at pH 1 at 20 degC by HPLC; type: physicochemical; conditions: aqueous buffer
[3] = AUC (0-infinity) in CD1 mouse lung at 40 mg/kg, po administered as single dose; type: ADME, organism-based; set-up: time infinity, dose 40 mg/kg, route oral
[4] = AUC (0-infinity) in CD1 mouse plasma at 40 mg/kg, po administered as single dose; type: ADME, organism-based; set-up: time infinity, dose 40 mg/kg, route oral
[5] = Half life in CD1 mouse lung at 40 mg/kg, po administered as single dose; type: ADME, organism-based; set-up: dose 40 mg/kg, route oral
[6] = physchem; conditions: water, pH 1
Description: Solubility of the compound in water at pH 1.0 by HPLC

[7] = Cmax in CD1 mouse plasma at 40 mg/kg, po administered as single dose; type: ADME, organism-based; set-up: dose 40 mg/kg, route oral
[8] = Thermodynamic solubility in aqueous buffer at pH 7.4 at 20 degC by HPLC; type: physicochemical
[9] = system: Mycobacterium tuberculosis; assay: microbe, parasite or virus in culture; conditions: H37Rv
[10] = system: Mycobacterium tuberculosis; assay: microbe, parasite or virus in culture; conditions: H37Rv; remark: listed apart in the source
Description: Antitubercular activity against Mycobacterium tuberculosis H37Rv by LORA method

[11] = physchem; conditions: water, pH 7
Description: Solubility of the compound in water at pH 7.0 by HPLC

[12] = Half life in CD1 mouse plasma at 40 mg/kg, po administered as single dose; type: ADME, organism-based; set-up: dose 40 mg/kg, route oral
[13] = in vitro; conditions: CD1, mouse, liver microsomes
Description: Metabolic stability in CD1 mouse liver microsomes assessed as compound remaining after 1 hr

[14] = in vitro; conditions: human, liver microsomes
Description: Metabolic stability in human liver microsomes assessed as compound remaining after 1 hr

Row | Compound | solubility [6] | MIC [9] | MIC [10] | solubility [11] | remaining at 1 h [13] | remaining at 1 h [14] | also measured
1 | O=[N+]([O-])c1cn2c(n1)OC[C@@H](OCc1ccc(-c3ccc(OC(F)(F)F)cc3)cc1)C2 | 1.1 µg/mL (≈ 2.53 µM) | – | – | – | – | – | Cmax [1]: 9000 ng/mL; solubility thermodynamic [2]: < 0.1 µg/mL; AUC(0-inf) [3]: 218 µg·h/mL; AUC(0-inf) [4]: 198 µg·h/mL; half-life [5]: 13 h; Cmax [7]: 7400 ng/mL; solubility thermodynamic [8]: < 0.1 µg/mL
2 | O=[N+]([O-])c1cn2c(n1)OC[C@@H](OCc1ccc(-c3ccc(C(F)(F)F)cn3)cn1)C2 | 442 µg/mL (≈ 1050 µM) | 0.83 µM (≈ 0.35 µg/mL) | 9.6 µM (≈ 4.04 µg/mL) | 5.9 µg/mL (≈ 14 µM) | – | – | –
3 | O=[N+]([O-])c1cn2c(n1)OC[C@@H](OCc1ccc(-c3ccc(OC(F)(F)F)c(Cl)c3)nc1)C2 | 39 µg/mL (≈ 82.8 µM) | 0.017 µM (≈ 0.008 µg/mL) | 1 µM (≈ 0.471 µg/mL) | – | 77% | 87% | half-life [12]: 22 h; Cmax [1]: 10000 ng/mL; solubility thermodynamic [2]: 17 µg/mL (≈ 36.1 µM); AUC(0-inf) [3]: 284 µg·h/mL; AUC(0-inf) [4]: 88 µg·h/mL; half-life [5]: 14 h; Cmax [7]: 2900 ng/mL; solubility thermodynamic [8]: 0.19 µg/mL (≈ 0.404 µM)
4 | O=[N+]([O-])c1cn2c(n1)OC[C@@H](OCc1ccnc(-c3ccc(OC(F)(F)F)cc3)c1)C2 | – | 0.035 µM (≈ 0.0153 µg/mL) | 2.4 µM (≈ 1.05 µg/mL) | 3.9 µg/mL (≈ 8.94 µM) | 31% | 54% | –
5 | O=[N+]([O-])c1cn2c(n1)OC[C@@H](OCc1ccc(OC(F)(F)F)cc1)C2 [PRETOMANID] | – | – | – | – | – | – | solubility thermodynamic [2]: 11 µg/mL (≈ 30.6 µM)
6 | O=[N+]([O-])c1cn2c(n1)OC[C@@H](OCc1ccc(-c3ccnc(F)c3)cc1)C2 | 15 µg/mL (≈ 40.5 µM) | 0.23 µM (≈ 0.0852 µg/mL) | 1.4 µM (≈ 0.518 µg/mL) | 14 µg/mL (≈ 37.8 µM) | 86% | 93% | –
7 | O=[N+]([O-])c1cn2c(n1)OC[C@@H](OCc1ccc(-c3ccc(F)cn3)cc1)C2 | 275 µg/mL (≈ 743 µM) | 0.035 µM (≈ 0.013 µg/mL) | 1.3 µM (≈ 0.481 µg/mL) | – | 61% | 83% | –
8 | O=[N+]([O-])c1cn2c(n1)OC[C@@H](OCc1ccc(-c3ccc(OC(F)F)nc3)cc1)C2 | – | 0.045 µM (≈ 0.0188 µg/mL) | 0.66 µM (≈ 0.276 µg/mL) | 3.2 µg/mL (≈ 7.65 µM) | 75% | 95% | –
9 | O=[N+]([O-])c1cn2c(n1)OC[C@@H](OCc1cncc(-c3ccc(F)cc3)c1)C2 | 41000 µg/mL (≈ 111000 µM) | 0.31 µM (≈ 0.115 µg/mL) | 7.7 µM (≈ 2.85 µg/mL) | 45 µg/mL (≈ 122 µM) | 39% | 71% | –
10 | O=[N+]([O-])c1cn2c(n1)OC[C@@H](OCc1ccc(-c3ccc(F)cc3)nc1)C2 | 1000 µg/mL (≈ 2700 µM) | 0.06 µM (≈ 0.0222 µg/mL) | 2.9 µM (≈ 1.07 µg/mL) | – | 80% | 88% | half-life [12]: 2.7 h; Cmax [1]: 11000 ng/mL; solubility thermodynamic [2]: > 93 µg/mL; AUC(0-inf) [3]: 136 µg·h/mL; AUC(0-inf) [4]: 61 µg·h/mL; half-life [5]: 2.8 h; Cmax [7]: 5300 ng/mL; solubility thermodynamic [8]: 5.9 µg/mL (≈ 15.9 µM)
11 | O=[N+]([O-])c1cn2c(n1)OC[C@@H](OCc1ccc(-c3ccc(F)nc3)cc1)C2 | 10 µg/mL (≈ 27 µM) | 0.095 µM (≈ 0.0352 µg/mL) | 2.1 µM (≈ 0.778 µg/mL) | 8 µg/mL (≈ 21.6 µM) | 79% | 88% | –
12 | O=[N+]([O-])c1cn2c(n1)OC[C@@H](OCc1ccc(-c3ncc(C(F)(F)F)cc3Cl)cc1)C2 | 2 µg/mL (≈ 4.4 µM) | 0.025 µM (≈ 0.0114 µg/mL) | 1 µM (≈ 0.455 µg/mL) | 3.3 µg/mL (≈ 7.26 µM) | 80% | 86% | –
13 | O=[N+]([O-])c1cn2c(n1)OC[C@@H](OCc1ccc(-c3ccc(OCc4ccccc4)nc3)cc1)C2 | – | 0.04 µM (≈ 0.0183 µg/mL) | > 32 µM | 0.03 µg/mL (≈ 0.0654 µM) | – | – | –
14 | O=[N+]([O-])c1cn2c(n1)OC[C@@H](OCc1cccc(-c3ccc(OC(F)F)cn3)c1)C2 | – | 0.21 µM (≈ 0.0879 µg/mL) | 6.4 µM (≈ 2.68 µg/mL) | 6.7 µg/mL (≈ 16 µM) | – | – | –
15 | COc1ccc(-c2ccnc(CO[C@@H]3COc4nc([N+](=O)[O-])cn4C3)c2)cn1 | – | 3.8 µM (≈ 1.46 µg/mL) | 31 µM (≈ 11.9 µg/mL) | 96 µg/mL (≈ 250 µM) | – | – | –
16 | COc1ccc(-c2ccc(CO[C@@H]3COc4nc([N+](=O)[O-])cn4C3)cc2)nc1 | – | 0.13 µM (≈ 0.0497 µg/mL) | 1.2 µM (≈ 0.459 µg/mL) | 2.5 µg/mL (≈ 6.54 µM) | – | – | –
17 | COc1ccc(-c2ccc(CO[C@@H]3COc4nc([N+](=O)[O-])cn4C3)nc2)cn1 | – | 0.36 µM (≈ 0.138 µg/mL) | 9.6 µM (≈ 3.68 µg/mL) | 24 µg/mL (≈ 62.6 µM) | – | – | –
18 | O=[N+]([O-])c1cn2c(n1)OC[C@@H](OCc1ccc(-c3ccc(Cl)c(OC(F)(F)F)c3)cn1)C2 | – | 0.06 µM (≈ 0.0282 µg/mL) | 2.3 µM (≈ 1.08 µg/mL) | 0.8 µg/mL (≈ 1.7 µM) | – | – | –
19 | COc1ccc(-c2ccc(CO[C@@H]3COc4nc([N+](=O)[O-])cn4C3)cn2)cc1F | – | 0.09 µM (≈ 0.036 µg/mL) | 1.9 µM (≈ 0.761 µg/mL) | 2.1 µg/mL (≈ 5.25 µM) | – | – | –
20 | O=[N+]([O-])c1cn2c(n1)OC[C@@H](OCc1cc(-c3ccc(F)cc3)ccn1)C2 | – | 0.46 µM (≈ 0.17 µg/mL) | 28 µM (≈ 10.4 µg/mL) | 16 µg/mL (≈ 43.2 µM) | – | – | –
21 | O=[N+]([O-])c1cn2c(n1)OC[C@@H](OCc1cnc(-c3ccc(C(F)(F)F)cc3)cn1)C2 | – | 0.08 µM (≈ 0.0337 µg/mL) | 0.97 µM (≈ 0.409 µg/mL) | 0.84 µg/mL (≈ 1.99 µM) | – | – | –
22 | O=[N+]([O-])c1cn2c(n1)OC[C@@H](OCc1cccc(-c3ccc(OC(F)F)cc3)n1)C2 | – | 0.17 µM (≈ 0.0711 µg/mL) | 2.7 µM (≈ 1.13 µg/mL) | 9.6 µg/mL (≈ 22.9 µM) | – | – | –
23 | O=[N+]([O-])c1cn2c(n1)OC[C@@H](OCc1ccc(-c3ccc(C(F)(F)F)nc3)nn1)C2 | – | 0.55 µM (≈ 0.232 µg/mL) | 14 µM (≈ 5.91 µg/mL) | 12 µg/mL (≈ 28.4 µM) | – | – | –
